According to patent US20230148214A1, “INDAZOLES AND AZAINDAZOLES AS LRRK2 INHIBITORS” (ESCAPE Bio, Inc., priority 2020, published 2023):

How the values were obtained:
LRRK2 G2019S = biological target: T1, LRRK2 G2019S (Homo sapiens, UniProt Q5S007, G2019S); assay: LRRK2 Kinase Activity Assay (LanthaScreen TR-FRET), G2019S; format: biochemical; details: recombinant G2019S-LRRK2, 25 μM ATP, 400 nM LRRKtide, 60 min; class symbols
T1 construct: purchased Life Technologies PV4881
How it was run: (§1)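 IC50 fitted to the compound-dependent loss of TR-FRET signal. Each kinase form, wild type or G2019S, phosphorylated the fluorescein-tagged ERM-derived LRRKtide in the presence of ATP and compound dilutions over 60 min at room temperature; quench contained 10 mM EDTA and 2 nM anti-pERM antibody (final).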

LRRK2 WT = biological target: T2, LRRK2 WT (Homo sapiens, UniProt Q5S007); assay: LRRK2 Kinase Activity Assay (LanthaScreen TR-FRET), wild type; format: biochemical; details: recombinant wild type LRRK2, 25 μM ATP, 400 nM LRRKtide, 60 min; class symbols
T2 construct: purchased Life Technologies PR8604B
How it was run: as §1

T1 sequence (Q5S007 whole entry G2019S): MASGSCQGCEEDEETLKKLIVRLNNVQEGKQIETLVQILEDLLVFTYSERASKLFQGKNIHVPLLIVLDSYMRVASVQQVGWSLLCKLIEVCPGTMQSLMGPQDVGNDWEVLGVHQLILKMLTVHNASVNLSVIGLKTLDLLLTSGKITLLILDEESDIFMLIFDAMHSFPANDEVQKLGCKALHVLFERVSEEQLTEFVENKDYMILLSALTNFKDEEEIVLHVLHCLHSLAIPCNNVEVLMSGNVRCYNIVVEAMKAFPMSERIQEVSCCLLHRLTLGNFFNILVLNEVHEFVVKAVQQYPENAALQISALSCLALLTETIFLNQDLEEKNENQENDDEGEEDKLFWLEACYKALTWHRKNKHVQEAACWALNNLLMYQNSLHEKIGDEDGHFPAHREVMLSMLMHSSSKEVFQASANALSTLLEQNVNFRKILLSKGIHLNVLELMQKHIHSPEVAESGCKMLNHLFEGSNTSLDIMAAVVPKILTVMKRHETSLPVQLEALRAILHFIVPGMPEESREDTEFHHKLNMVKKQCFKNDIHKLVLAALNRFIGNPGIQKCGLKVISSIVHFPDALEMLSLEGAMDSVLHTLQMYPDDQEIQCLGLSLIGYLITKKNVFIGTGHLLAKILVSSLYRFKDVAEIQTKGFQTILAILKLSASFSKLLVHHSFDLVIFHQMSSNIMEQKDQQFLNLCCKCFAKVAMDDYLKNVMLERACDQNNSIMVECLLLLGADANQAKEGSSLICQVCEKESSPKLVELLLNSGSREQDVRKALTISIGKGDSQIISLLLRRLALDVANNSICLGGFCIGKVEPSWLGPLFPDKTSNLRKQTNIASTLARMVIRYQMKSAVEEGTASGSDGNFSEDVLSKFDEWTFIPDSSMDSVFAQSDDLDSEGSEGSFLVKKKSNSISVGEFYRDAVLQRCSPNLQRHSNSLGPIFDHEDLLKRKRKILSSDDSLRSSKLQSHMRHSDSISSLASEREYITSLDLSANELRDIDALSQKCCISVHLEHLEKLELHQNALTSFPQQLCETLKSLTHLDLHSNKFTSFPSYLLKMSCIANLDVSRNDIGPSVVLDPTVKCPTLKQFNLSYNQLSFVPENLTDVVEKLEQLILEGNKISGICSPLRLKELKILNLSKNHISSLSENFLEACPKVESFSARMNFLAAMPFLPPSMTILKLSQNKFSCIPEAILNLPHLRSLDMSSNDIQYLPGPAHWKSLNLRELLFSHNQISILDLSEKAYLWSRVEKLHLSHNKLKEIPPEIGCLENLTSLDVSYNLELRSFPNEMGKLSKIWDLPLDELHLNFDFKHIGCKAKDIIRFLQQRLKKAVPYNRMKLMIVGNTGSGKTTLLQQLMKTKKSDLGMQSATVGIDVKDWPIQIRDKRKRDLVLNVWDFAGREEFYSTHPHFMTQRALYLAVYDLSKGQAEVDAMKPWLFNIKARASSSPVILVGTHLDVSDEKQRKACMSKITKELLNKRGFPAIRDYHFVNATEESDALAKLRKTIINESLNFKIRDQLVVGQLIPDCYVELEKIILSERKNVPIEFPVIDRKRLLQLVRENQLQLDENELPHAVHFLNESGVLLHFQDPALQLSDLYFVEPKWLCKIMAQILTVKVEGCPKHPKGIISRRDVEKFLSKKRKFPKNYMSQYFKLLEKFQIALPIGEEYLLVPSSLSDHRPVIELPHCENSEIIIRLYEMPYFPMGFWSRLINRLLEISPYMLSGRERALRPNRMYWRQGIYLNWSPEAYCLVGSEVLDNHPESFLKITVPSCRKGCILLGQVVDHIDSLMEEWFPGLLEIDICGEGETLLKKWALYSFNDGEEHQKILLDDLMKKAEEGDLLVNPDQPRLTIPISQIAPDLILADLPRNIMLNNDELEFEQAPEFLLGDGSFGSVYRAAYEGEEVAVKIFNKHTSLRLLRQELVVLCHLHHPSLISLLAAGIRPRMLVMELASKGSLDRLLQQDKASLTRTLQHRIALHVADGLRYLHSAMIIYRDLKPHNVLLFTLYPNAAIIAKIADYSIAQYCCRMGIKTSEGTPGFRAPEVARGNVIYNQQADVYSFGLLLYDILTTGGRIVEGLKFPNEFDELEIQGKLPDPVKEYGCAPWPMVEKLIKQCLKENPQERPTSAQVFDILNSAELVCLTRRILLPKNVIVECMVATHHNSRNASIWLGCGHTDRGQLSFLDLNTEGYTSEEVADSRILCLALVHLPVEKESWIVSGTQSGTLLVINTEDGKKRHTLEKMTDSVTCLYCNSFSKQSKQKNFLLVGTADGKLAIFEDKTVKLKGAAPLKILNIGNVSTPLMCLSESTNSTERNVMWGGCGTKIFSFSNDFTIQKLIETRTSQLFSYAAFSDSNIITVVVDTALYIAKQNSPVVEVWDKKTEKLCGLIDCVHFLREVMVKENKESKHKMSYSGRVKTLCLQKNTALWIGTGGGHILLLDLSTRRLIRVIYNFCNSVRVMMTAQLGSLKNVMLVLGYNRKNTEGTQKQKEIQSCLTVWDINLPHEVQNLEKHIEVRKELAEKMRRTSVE
T2 sequence (Q5S007 whole entry): as the sequence (Q5S007 whole entry G2019S) above, with S2019G counted along it

IC50 (LRRK2 G2019S) [nM] | IC50 (LRRK2 WT) [nM] | Compound
1000 to 10000 | 1000 to 10000 | N#Cc1ccc2c(c1)CCCC2Oc1ccc2[nH]nc(C(F)(F)F)c2c1 (single isomer, unassigned) [Example 152, enantiomer 1, 5-((3-(Trifluoromethyl)-1H-indazol-5-yl)oxy)-5,6,7,8-tetrahydronaphthalene-2-carbonitrile]
< 100 | 1000 to 10000 | N#Cc1ccc2c(c1)CCCC2Nc1ccc2[nH]nc(C(F)(F)F)c2c1 (single isomer, unassigned) [Example 153, enantiomer 1, 5-((3-(Trifluoromethyl)-1H-indazol-5-yl)amino)-5,6,7,8-tetrahydronaphthalene-2-carbonitrile]
< 100 | < 100 | COc1c(C#N)cnc2c1CC[C@@H]2Nc1ccc2[nH]nc(-c3cnco3)c2c1 (single isomer, unassigned) [Example 154, enantiomer 2, 4-Methoxy-7-((3-(oxazol-5-yl)-1H-indazol-5-yl)amino)-6,7-dihydro-5H-cyclopenta[b]pyridine-3-carbonitrile]
< 100 | < 100 | Cc1ncc(-c2n[nH]c3ccc(N[C@@H]4c5ccc(C#N)cc5CC4(F)F)cc23)o1 (single isomer, unassigned) [Example 155, enantiomer 1, 2,2-Difluoro-1-((3-(2-methyloxazol-5-yl)-1H-indazol-5-yl)amino)-2,3-dihydro-1H-indene-5-carbonitrile]
< 100 | < 100 | Cc1ncc(-c2n[nH]c3ccc(O[C@H]4CCc5c4ccc(C#N)c5F)cc23)o1 (single isomer, unassigned) [Example 156, enantiomer 1, 4-Fluoro-1-((3-(2-methyloxazol-5-yl)-1H-indazol-5-yl)oxy)-2,3-dihydro-1H-indene-5-carbonitrile]
100 to 1000 | 100 to 1000 | N#Cc1ccc2c(c1)CCC[C@@H]2Nc1ccc2[nH]nc(-c3ccn[nH]3)c2c1 (single isomer, unassigned) [Example 157, enantiomer 1, 5-((3-(1H-Pyrazol-5-yl)-1H-indazol-5-yl)amino)-5,6,7,8-tetrahydronaphthalene-2-carbonitrile]
< 100 | < 100 | N#Cc1ccc2c(c1)CCC[C@@H]2Nc1ccc2[nH]nc(-c3ccn[nH]3)c2c1 (single isomer, unassigned) [Example 157, enantiomer 2, 5-((3-(1H-Pyrazol-5-yl)-1H-indazol-5-yl)amino)-5,6,7,8-tetrahydronaphthalene-2-carbonitrile]
< 100 | < 100 | Cc1cc(-c2n[nH]c3ccc(N[C@H]4CCCc5cc(C#N)cnc54)cc23)sn1 (single isomer, unassigned) [Example 158, enantiomer 1, 8-((3-(3-Methylisothiazol-5-yl)-1H-indazol-5-yl)amino)-5,6,7,8-tetrahydroquinoline-3-carbonitrile]
< 100 | < 100 | Cc1ncc(-c2n[nH]c3ccc(N[C@H]4CCCc5cc(C#N)c(C)nc54)cc23)o1 (single isomer, unassigned) [Example 159, enantiomer 1, 2-Methyl-8-((3-(2-methyloxazol-5-yl)-1H-indazol-5-yl)amino)-5,6,7,8-tetrahydroquinoline-3-carbonitrile]
< 100 | < 100 | Cc1ncc(-c2n[nH]c3ccc(O[C@H]4CCc5cc(C#N)c(F)cc54)cc23)o1 (single isomer, unassigned) [Example 160, enantiomer 1, 6-Fluoro-1-((3-(2-methyloxazol-5-yl)-1H-indazol-5-yl)oxy)-2,3-dihydro-1H-indene-5-carbonitrile]
< 100 | < 100 | N#Cc1cnc2c(c1)CCC[C@@H]2Oc1ccc2[nH]nc(-c3cnccn3)c2c1 (single isomer, unassigned) [Example 161, enantiomer 1, 8-((3-(Pyrazin-2-yl)-1H-indazol-5-yl)oxy)-5,6,7,8-tetrahydroquinoline-3-carbonitrile]
< 100 | 100 to 1000 | N#Cc1cnc2c(c1)CCC[C@@H]2Oc1ccc2[nH]nc(-c3cnccn3)c2c1 (single isomer, unassigned) [Example 161, enantiomer 2, 8-((3-(Pyrazin-2-yl)-1H-indazol-5-yl)oxy)-5,6,7,8-tetrahydroquinoline-3-carbonitrile]
100 to 1000 | 100 to 1000 | [2H][C@]1(Nc2ccc3[nH]nc(-c4cnco4)c3c2)CCCc2cc(C#N)cnc21 (single isomer, unassigned) [Example 162, enantiomer 1, 8-Deuterio-8-((3-(oxazol-5-yl)-1H-indazol-5-yl)amino)-5,6,7,8-tetrahydroquinoline-3-carbonitrile]
< 100 | < 100 | [2H][C@]1(Nc2ccc3[nH]nc(-c4cnco4)c3c2)CCCc2cc(C#N)cnc21 (single isomer, unassigned) [Example 162, enantiomer 2, 8-Deuterio-8-((3-(oxazol-5-yl)-1H-indazol-5-yl)amino)-5,6,7,8-tetrahydroquinoline-3-carbonitrile]
< 100 | 100 to 1000 | N#Cc1cnc2c(n1)CCC[C@@H]2Oc1ccc2[nH]nc(-c3cnco3)c2c1 (single isomer, unassigned) [Example 163, enantiomer 1, 5-[[3-(1,3-Oxazol-5-yl)-1H-indazol-5-yl]oxy]-5,6,7,8-tetrahydroquinoxaline-2-carbonitrile]
< 100 | 100 to 1000 | Cc1nc2c(c(C)c1C#N)CCC[C@@H]2Nc1ccc2[nH]nc(-c3cnco3)c2c1 (single isomer, unassigned) [Example 164, enantiomer 1, 2,4-Dimethyl-8-[[3-(1,3-oxazol-5-yl)-1H-indazol-5-yl]amino]-5,6,7,8-tetrahydroquinoline-3-carbonitrile]
< 100 | 100 to 1000 | COc1nc2c(c(C)c1C#N)CCC[C@@H]2Nc1ccc2[nH]nc(-c3cnco3)c2c1 (single isomer, unassigned) [Example 165, enantiomer 1, 2-Methoxy-4-methyl-8-[[3-(1,3-oxazol-5-yl)-1H-indazol-5-yl]amino]-5,6,7,8-tetrahydroquinoline-3-carbonitrile]
< 100 | < 100 | Cc1c(C#N)c(Cl)nc2c1CC[C@@H]2Oc1ccc2[nH]nc(-c3cnco3)c2c1 (single isomer, unassigned) [Example 166, enantiomer 1, 2-Chloro-4-methyl-7-[[3-(1,3-oxazol-5-yl)-1H-indazol-5-yl]oxy]-6,7-dihydro-5H-cyclopenta[b]pyridine-3-carbonitrile]
< 100 | 100 to 1000 | N#Cc1c(F)cc2c(c1F)CC[C@@H]2Oc1ccc2[nH]nc(-c3cnco3)c2c1 (single isomer, unassigned) [Example 167, enantiomer 1, 4,6-Difluoro-1-[[3-(1,3-oxazol-5-yl)-1H-indazol-5-yl]oxy]-2,3-dihydro-1H-indene-5-carbonitrile]
< 100 | 100 to 1000 | C[C@@H]1C[C@@H](Nc2ccc3[nH]nc(-c4cnco4)c3c2)c2ccc(C#N)cc21 (single isomer, unassigned) [Example 168, enantiomer 1, trans-3-Methyl-1-[[3-(1,3-oxazol-5-yl)-1H-indazol-5-yl]amino]-2,3-dihydro-1H-indene-5-carbonitrile]
< 100 | 100 to 1000 | C[C@@H]1C[C@@H](Nc2ccc3[nH]nc(-c4cnco4)c3c2)c2ccc(C#N)cc21 (single isomer, unassigned) [Example 168, enantiomer 2, trans-3-Methyl-1-[[3-(1,3-oxazol-5-yl)-1H-indazol-5-yl]amino]-2,3-dihydro-1H-indene-5-carbonitrile]
< 100 | 100 to 1000 | C[C@H]1C[C@@H](Nc2ccc3[nH]nc(-c4cnco4)c3c2)c2ccc(C#N)cc21 (single isomer, unassigned) [Example 169, enantiomer 1, cis-3-Methyl-1-[[3-(1,3-oxazol-5-yl)-1H-indazol-5-yl]amino]-2,3-dihydro-1H-indene-5-carbonitrile]
< 100 | 100 to 1000 | C[C@H]1C[C@@H](Nc2ccc3[nH]nc(-c4cnco4)c3c2)c2ccc(C#N)cc21 (single isomer, unassigned) [Example 169, enantiomer 2, cis-3-Methyl-1-[[3-(1,3-oxazol-5-yl)-1H-indazol-5-yl]amino]-2,3-dihydro-1H-indene-5-carbonitrile]
< 100 | < 100 | Cc1nc2c(c(C)c1C#N)CC[C@@H]2Nc1ccc2[nH]nc(-c3cnco3)c2c1 (single isomer, unassigned) [Example 170, enantiomer 1, 2,4-Dimethyl-7-[[3-(1,3-oxazol-5-yl)-1H-indazol-5-yl]amino]-6,7-dihydro-5H-cyclopenta[b]pyridine-3-carbonitrile]
< 100 | 100 to 1000 | Cc1nc2c(c(C)c1C#N)CC[C@@H]2Nc1ccc2[nH]nc(-c3cnco3)c2c1 (single isomer, unassigned) [Example 170, enantiomer 2, 2,4-Dimethyl-7-[[3-(1,3-oxazol-5-yl)-1H-indazol-5-yl]amino]-6,7-dihydro-5H-cyclopenta[b]pyridine-3-carbonitrile]
< 100 | < 100 | N#Cc1cc2c(nc1Cl)[C@@H](Oc1ccc3[nH]nc(-c4cnco4)c3c1)CC2 (single isomer, unassigned) [Example 171, enantiomer 1, 2-Chloro-7-[[3-(1,3-oxazol-5-yl)-1H-indazol-5-yl]oxy]-6,7-dihydro-5H-cyclopenta[b]pyridine-3-carbonitrile]
100 to 1000 | 100 to 1000 | CC1(C)Cc2cc(C#N)cnc2[C@H]1Nc1ccc2[nH]nc(-c3cnco3)c2c1 (single isomer, unassigned) [Example 172, enantiomer 1, 6,6-Dimethyl-7-[[3-(1,3-oxazol-5-yl)-1H-indazol-5-yl]amino]-5,7-dihydrocyclopenta[b]pyridine-3-carbonitrile]
